{
  "source": "patent US8138148B2",
  "about": "“GDNF derived peptides” (Copenhagen University, priority 2005, dated 2012)",
  "key": {"[1]": {"test_system": "primary hippocampal neurons", "test": "Neurite outgrowth assay, monocultures of primary hippocampal neurons", "assay_type": "cell-based, rat", "conditions": "monoculture, stimulated 24 hours; GDNF 1-100 ng/ml, peptides 0.1-27 μg/ml; versus medium alone", "description": "Two different versions of the neurite outgrowth assay were used in this study, monocultures and co-cultures.\nIn monocultures, neurons are grown directly on plastic and the only neuritogenic stimulus is the one presented by the added substance. In co-cultures, neurons are grown on top of a confluent monolayer of fibroblasts expressing NCAM-140 (LBN110) or NCAM-negative control fibroblasts (LVN212). NCAM on the neurons interact with NCAM on LBN110 cells thereby stimulating neurite outgrowth from the neurons. This system thus permits the study of NCAM-NCAM interactions and interactions between NCAM and other molecules.\nFor all experiments cells were grown in neurobasal medium with supplements as described above in a final volume of 300 μl/well in 8-well LabTek® Permanox Chamber slides or 500 μl/well in 4-well LabTek® Permanox Chamber slides.\nFor monocultures, primary hippocampal neurons were seeded in 8-well LabTek® Permanox Chamber slides at a density of 10,000 cells/well.\nTo evaluate the effect peptides on neurite outgrowth, GDNF and the peptides, G1, G2, G3, A1, A2, A3, N1, N2 and N3 were diluted to the appropriate concentrations and added to the neurons approximately 10 minutes after seeding. Medium alone was added to controls, and cells were incubated for 24 hours.\nNeurite outgrowth experiments were terminated after the stated time by fixating the cells. To visualize neurons and their neurites, immunostaining of GAP-43 was performed. This staining is specific for neurons. Transfected cells and their neurites should be visible without immunostaining due to the fluorescence emitted by GFP. […] GFP is a cytoplasmic protein, and since thin neurites only contain a small volume of cytoplasm, GFP is only found in small amounts in most neurites. Therefore, a double-staining protocol, where cells were immunostained against GFP and GAP-43, was adopted. This protocol allowed the identification of transfected cells on the basis of GFP-staining in combination with visualization of neurites based on GAP-43-staining. […]"}, "dopaminergic neurons": {"test_system": "dopaminergic neurons", "test": "Survival assay, dopaminergic neurons (6-OHDA)", "assay_type": "cell-based, Wistar rat", "conditions": "100 μM 6-OHDA for two hours, further 24 hours with peptide", "description": "Dopaminergic neurons were prepared from Wistar rat embryos at embryonic day 15 (Charles River, Sulzfeld, Germany or Møllegaard, Denmark). A pregnant rat was sacrificed and the uterus was taken out and kept on ice in Hank's balanced salt solution (HBSS; Gibco, BRL). The ventral part of the mesencephalon was dissected from the embryonic brains, homogenised on ice in Gey's balanced salt solution (GBSS; Gibco, BRL) supplemented with 5 g glucose/l (Sigma-Aldrich) and thereafter trypsinised. The dissociated cells were washed in the presence of DNAse 1 and soybean trypsin inhibitor (Sigma-Aldrich).\nDopaminergic neurons were seeded at a density of 150,000 cells/cm^2 in 24-well cell culture plates coated with poly-D-lysine as described above. The neurons were left to differentiate for six days without or with various concentrations of peptide, after which 6-OHDA was added at a concentration of 100 μM for two hours. A stock solution was prepared by dissolving 6-OHDAto a concentration of 10 mM in 0.1% (w/v) sodium metabisulphite in order to prevent oxidation. After two hours with 6-OHDA, the medium was changed to Neurobasal medium with supplements and peptide, and the cell cultures were further incubated for 24 hours, fixed and immunostained for tyrosine hydroxylase. 98 images for each experimental condition in each individual experiment were automatically video-recorded."}, "Ig1-2 modules of NCAM": {"test_system": "Ig1-2 modules of NCAM", "test": "Surface plasmon resonance (SPR) binding analysis, NCAM Ig1-2", "conditions": "immobilized receptor protein, 25° C., PBS pH 7.4", "description": "(§1) Analysis of binding was performed employing a BIAcoreX instrument (Biosensor AB, Uppsala, Sweden) at 25° C. using 10 mM pH 7.4 sodium phosphate containing 150 mM NaCl as running buffer (phosphate-buffered saline, PBS). The flow-rate was 5 μl/min. Data were analysed by non-linear curve-fitting using the manufacturer's software. The receptor proteins, e.g. NCAM Ig1-Ig2 and GFR proteins, were immobilized on a sensor chip CM5 using an amine coupling kit (Biosensor AB) as follows: the chip was activated by 20 μl activation solution; the protein was immobilized using 12 μl 20 μg/ml protein in 10 mM sodium phosphate buffer pH 6.0; the chip was blocked by 35 μl blocking solution. Various peptides at the indicated concentrations were injected into the sensor chip. The curve corresponding to the difference between binding to receptor and a blank chip was used for analysis."}, "GFRα1 receptor": {"target": "T1, GFRα1 receptor (Homo sapiens, UniProt P56159)", "T1 sequence (P56159 25-429)": "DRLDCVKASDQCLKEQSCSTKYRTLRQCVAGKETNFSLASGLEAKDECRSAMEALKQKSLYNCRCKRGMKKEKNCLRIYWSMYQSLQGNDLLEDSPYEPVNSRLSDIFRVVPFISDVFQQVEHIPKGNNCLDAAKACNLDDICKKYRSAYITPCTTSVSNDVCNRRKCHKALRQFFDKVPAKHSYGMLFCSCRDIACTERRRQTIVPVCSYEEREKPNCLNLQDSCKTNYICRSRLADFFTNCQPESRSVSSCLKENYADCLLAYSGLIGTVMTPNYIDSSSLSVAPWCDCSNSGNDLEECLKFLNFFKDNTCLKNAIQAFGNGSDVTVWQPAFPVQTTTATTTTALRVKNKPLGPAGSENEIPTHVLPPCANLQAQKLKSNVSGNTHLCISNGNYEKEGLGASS", "test": "Surface plasmon resonance (SPR) binding analysis, GFRα1", "conditions": "immobilized receptor protein, 25° C., PBS pH 7.4", "description": "as §1"}},
  "data": [
    {"sequence": "ETTYDKILKNLSRNR (listed as Homo sapiens) [G2, GDNF fragment]", "values": [
      {"measurement": "neurite outgrowth, overall effect of treatment (one-way ANOVA)", "setting": "[1]", "result": "overall statistical significant effect"},
      {"measurement": "survival of dopaminergic neurons", "setting": "dopaminergic neurons", "result": "increases the survival of dopaminergic neurons"},
      {"measurement": "binding to the Ig1-2 modules of NCAM (SPR)", "setting": "Ig1-2 modules of NCAM", "result": "Binding"},
      {"measurement": "binding to the GFRα1 receptor (SPR)", "setting": "GFRα1 receptor", "result": "binding"}
    ]}
  ]
}
